# Assays:
# [1] = test system: rabbit aorta precontracted with noradrenaline; assay: relaxation of rabbit aorta precontracted with noradrenaline
# [2] = test system: endothelial cells of the microcirculatory system; assay: endothelial cell migration, Boyden chambers; format: cell-based; details: compared with other NO donors
# Text: The pharmacological activity of the compounds of the invention has been evaluated by their relaxation induction effect in vascular preparations (rabbit aorta rings) precontracted with noradrenaline (Amerini et al., J. Cardiovasc. Pharmacol., 28: 82-88, […]). The endothelio-protective and pro-angiogenetic effects of the compounds have also been evaluated in a study on the proliferation and migration of endothelial cells of the microcirculatory system (M. Ziche et al., J. Clin. Invest. 94: 2036-2044, 1994).
# The endothelio-protective and pro-angiogenetic effect of the compounds was also evaluated by measuring the growth promotion and migration effect on endothelial cells of the microcirculatory system compared with other NO donors. Cell migration was evaluated using Boyden chambers, and proliferation as the total number of cells after 48 hours of exposure to the substances under study (M. Ziche et al., J. Clin. Invest. 94: 2036-2044, 1994).
smiles,measurement,setting,value
"NCCCNCCCCN(CCCN)/[N+]([O-])=N/O [SpermineNONOate, spermineNONOate]","vascular relaxation, result in words",[1],much less powerful than piperazineNONOate complexes
same,"effect on endothelial cell migration, result in words",[2],little active and does not give the maximum effect
